From US20250051403A1, “ANTIMICROBIAL PEPTIDES, VARIANTS AND CHEMICAL ANALOGUES THEREOF AND THEIR USES” (priority 2021, published 2025)
In brackets after ≈: the same amount, converted by molar mass. Like-named read-outs stand apart in the source and are kept apart here. Positions of bridges follow the written chain, without caps; N, C: chain ends. Residues, ends and D or L forms follow the SMILES beside them.

Columns and labels:
M. bovis BCG Pasteur = conditions: Table IV; REMA, 90% growth inhibition
V. diabolicus = assay: Scanning electron microscopy of treated bacteria; assay type: cell-based, Vibrio diabolicus; conditions: FIG. 9
Excerpt: (§1) The arrows show pore formed through the membrane. For V. diabolicus, despite the results of FIG. 3, is seems that Michelicin has a pore-forming activity on these bacteria.

[1] = tested on: Burkholderia cepacia (DSM 7288); assay: MIC, broth microdilution; assay type: cell-based
[2] = tested on: B. subtilis nisin resistant (DSMZ 347); conditions: Table IV
[3] = tested on: M. abscessus R (CIP104537^TR); conditions: Table IV; REMA, 90% growth inhibition
[4] = tested on: Escherichia coli (ATCC 8739); assay: MIC, broth microdilution; assay type: cell-based
[5] = tested on: A. baumannii antibiotic resistant (CIP 110431)
[6] = tested on: Acinetobacter baumannii (CIP 103572); assay: MIC, broth microdilution; assay type: cell-based
[7] = tested on: Bacillus subtilis (ATCC 6633); assay: MIC, broth microdilution; assay type: cell-based; conditions: Table IV
Experimental: (§2) To standardize the bacterial cell suspension for assay of antibacterial activity, some colonies of each strain grown overnight on MHA (Mueller Hinton Agar. ROTH) plates were suspended in MHB (Mueller Hinton Broth. ROTH) or MHB saline (Mueller Hinton Broth containing 565 mM NaCl) and incubated at 37° C. or 30° C. until visible turbid. This log-phase inoculum was diluted 1:100 in the same culture media. Using sterile 96-well microtiter plates (CELLSTAR. Greiner bio-one), serial 2-fold dilutions (40 to 0.78 μM) of each peptide were prepared in cation-adjusted acetic acid 0.02% with 0.4% BSA (Bovin Serum Albumin fraction V. Boehringer) at a volume of 10 μL/well. Each well was inoculated with 100 μL of the standardized bacterial inoculum, corresponding to a final test concentration of about 10^5 CFU/mL. Antimicrobial activities were expressed as the MIC (Minimal Inhibitory Concentration), the lowest concentration of peptide at which 100% inhibition of microbial growth was observed after 24 h of incubation at 37° C. or 30° C. by measuring OD600 in a microtiter plate reader. The minimal bactericidal concentration (MBC) was defined as the peptide concentration where no colony growth was observed.
(§3) The same experiments as described in 1) were performed. For the evaluation of antimicrobial activity against some other strains, a resazurin microtiter assay was used as explained hereinafter.

[8] = tested on: Salmonella enterica (CIP 80.39); assay: MIC, broth microdilution; assay type: cell-based; conditions: Table IV
Experimental: as §2, §3

[9] = tested on: Mycobacterium tuberculosis mc^26230
[10] = tested on: P. aeruginosa Fluoroquinolone resistant (CIP 107398); assay: MIC, broth microdilution; assay type: cell-based, Pseudomonas aeruginosa
Pseudomonas sp. = assay: MIC, broth microdilution; assay type: cell-based; conditions: Table III; MHB saline 565 mM NaCl
Experimental: as §2

[11] = tested on: S. aureus methicillin resistant USA300 (ATCC BAA-1717); assay: MIC, broth microdilution; assay type: cell-based, Staphylococcus aureus
Pseudomonas sp biofilm = assay: Biofilm formation assay (crystal violet); assay type: cell-based; conditions: 20 μM peptide, 2 h at 37° C. on 48 h biofilm; untreated culture 0.95
Experimental: Overnight cultures of V. diabolicus and Pseudomonas sp (37° C., 200 rpm) were diluted to an OD600 of 0.1 in MHB medium and 200 μL aliquots of the suspensions were introduced into the wells of a 96 microtiter plates (Nunc). Plates were then incubated at 37° C. without shaking for 48 h. After removal of the standing culture, the wells were washed with MHB medium and Michelicin, Arenicin and Alvinellacin were added, respectively, at a final concentration of 20 μM in MHB. The treatment was performed during 2 h at 37° C. Wells were then washed three times with distilled water and the remaining attached bacteria were fixed with 99% methanol per well for 20 min at room temperature. Afterward, methanol was removed and plates were air-dried. Biofilms were stained with 300 μL of 1% crystal violet (v/v) for 20 min at room temperature, before the residual stain was removed. After washing, the crystal violet bound to the adherent cells was solubilized with 300 μL of 100% ethanol and absorbance was measured at 595 nm (TECAN, sunrise). Sterile medium served as negative control. It is clear on the view of FIG. 3 that Michelicin has a greater antimicrobial activity on a biofilm of Pseudomonoas sp strains than Alvinellacin. For Pseudomonas sp, OD595 is equal to 0.6 when treated with Michelicin, equal to 0.55 when treated with Arenicin and equal to 0.65 when treated with Alvinellacin. […]

V. alginolyticus = assay: Scanning electron microscopy of treated bacteria; assay type: cell-based, Vibrio alginolyticus; conditions: FIG. 9
Excerpt: as §1

[12] = tested on: Helicobacter pylori (ATCC 43504); assay: MIC, broth microdilution; assay type: cell-based
[13] = tested on: Enterococcus faecalis Vancomycin-resistant (DSMZ 13591); assay: MIC, broth microdilution; assay type: cell-based
Serratia marcescens = assay: MIC, broth microdilution; assay type: cell-based
[14] = tested on: E. coli carbapenem- resistant (DSMZ 22314)
[15] = tested on: V. alginolyticus (MPV19 IFREMER); assay: MIC, broth microdilution; assay type: cell-based, Vibrio alginolyticus
S. aureus (Pasteur) = assay: MIC, broth microdilution; assay type: cell-based, Staphylococcus aureus
E. coli (D31 Pasteur) = assay: MIC, broth microdilution; assay type: cell-based, Escherichia coli; conditions: Table IV
Experimental: as §2, §3

[16] = tested on: Staphylococcus aureus (ATCC 6538P); assay: MIC, broth microdilution; assay type: cell-based
[17] = tested on: Pseudomonas aeruginosa (ATCC 9027); assay: MIC, broth microdilution; assay type: cell-based; conditions: Table IV
[18] = tested on: Klebsiella pneumoniae carbapenem-resistant (DSMZ 26371); assay: MIC, broth microdilution; assay type: cell-based
[19] = Cytotoxicity, resazurin cell viability; assay type: cell-based, human; conditions: human
Experimental: The toxicity of Michelicin on human cells was tested as previously described (Borie et al., 2017; Oyama et al., 2017). Briefly, human cells were cultured in Dulbecco's modified essential medium (DMEM) supplemented with 10% fetal calf serum (FCS), 1% L-glutamine and 1% antibiotics (all from Invitrogen). Cells were routinely grown in onto 25 cm^2 flasks maintained in a 5% CO2 incubator at 37° C. For toxicity assay, cells grown on 25 cm^2 flasks were detached using trypsin-EDTA solution (Thermofisher) and seeded into 96-well cell culture plates (Greiner Bio-one) at approximately 10^4 cells per well (counted using Mallasez's chamber). The cells were grown at 37° C. in a 5% CO2 incubator until they reached confluence (approximately 48-72 h of seeding). Wells were then aspirated and increasing concentrations of AMP were added to the cells and incubated for a further 48 h at 37° C. in a 5% CO2 incubator. The wells were then emptied, and cell viability was evaluated using resazurin based in vitro toxicity assay kit (Sigma-Aldrich) following manufacturer's instructions. Briefly, resazurin stock solution was diluted 1:100 in sterile PBS containing calcium and magnesium (PBS++, pH 7.4) and emptied wells were filled with 100 μL of the resazurin diluted solution. After 4 h incubation at 37° C. with the peptide treated cells, fluorescence intensity was measured using microplate reader (SynerMix, Bioteck) (excitation wavelength of 530 nm/emission wavelength of 590 nm). The fluorescence values were normalized by the controls and expressed as percentage of cell viability. The IC50 values of tested AMP on cell viability (i.e. the concentration of peptides causing a reduction of 50% of the cell viability) were calculated using GraphPad® Prism 7 software. Two cell lines were tested: Human Bronchial Epithelial Cell Line (BEAS; ATCC CRL-9609) and Human umbilical vein endothelial cell (HUVEC).

Jurkat human cells = conditions: cited from earlier work

With CSCC[C@@H]1NC(=O)[C@@H]2CSSC[C@H](NC(=O)[C@H](CCCNC(=N)N)NC(=O)[C@H]([C@@H](C)O)NC(=O)[C@H](Cc3ccc(O)cc3)NC(=O)[C@@H](NC(=O)CNC(=O)[C@@H](N)CCCNC(=N)N)CSSC[C@@H](C(=O)N[C@H](C(=O)O)[C@@H](C)O)NC(=O)[C@H](C(C)C)NC(=O)[C@H](CCCNC(=N)N)NC1=O)C(=O)N[C@@H](Cc1c[nH]c3ccccc13)C(=O)N[C@@H](CCCCN)C(=O)N[C@@H](C(C)C)C(=O)NCC(=O)N[C@@H](CCCNC(=N)N)C(=O)N[C@@H](CC(N)=O)C(=O)NCC(=O)N[C@@H](CCCNC(=N)N)C(=O)N[C@@H](C(C)C)C(=O)N2 [Alvinellacin] (H-RGCYTRCWKVGRNGRVCMRVCT-OH; disulfide 3-21, 7-17; N-terminus and C-terminus assumed) the MIC (M. bovis BCG Pasteur) was 12.0 to 21.4 µM, the “Membrane damage seen by scanning electron microscopy” value (V. diabolicus) was “able to damage” and the MIC ([1]; Table IV) was 10 µM (≈ 26 µg/mL). The MIC [2] was 0.625 to 1.25 µM, the MIC [3] was 17.0 to 17.8 µM and the MIC ([4]; Table IV) was 1.25 to 2.5 µM. For the same compound, the MIC ([5]; Table IV) was 0.625 to 1.25 µM, the MIC ([6]; Table IV) was 1.25 to 2.5 µM and the MIC [7] was 0.625 to 1.25 µM. For the same compound, the MIC [8] was 0.625 to 1.25 µM, the MIC [9] was 16.0 to 21.5 µM and the MIC ([10]; Table IV) was 1.25 to 2.5 µM. For the same compound, the “MIC with 565 mM NaCl” value (Pseudomonas sp.) was 5 to 10 µM, the MIC ([11]; Table IV) was 2.5 to 5 µM and the MIC (Vibrio alginolyticus) was 0.07 to 0.15 µM. The “MIC with 565 mM NaCl” value (Vibrio alginolyticus) was 0.07 to 0.15 µM, the MIC (Vibrio alginolyticus; 24 h) was 0.07 to 0.15 µM and the “Biofilm OD595 after treatment” value (Pseudomonas sp biofilm) was 0.65. For the same compound, the “Membrane damage seen by scanning electron microscopy” value (V. alginolyticus) was “able to damage”, the MIC ([12]; Table IV) was 1.25 to 2.5 µM and the MIC ([13]; Table IV) was 20 to 40 µM. For the same compound, the MIC (Serratia marcescens; Table IV) was >50 µM, the MIC ([14]; Table IV) was 0.625 to 1.25 µM and the MIC ([15]; Table III, MHB) was 0.07 to 0.15 µM. The “MIC with 565 mM NaCl” value ([15]; Table III, MHB saline 565 mM NaCl) was 0.62 to 1.25 µM, the MIC ([15]; Table IV) was 0.07 to 0.15 µM and the MIC (S. aureus (Pasteur); Table IV) was 1.25 to 2.5 µM. It also gave an MIC (E. coli (D31 Pasteur)) of 0.31 to 0.62 µM, an MIC ([16]; Table IV) of 2.5 to 5 µM and an MIC (Bacillus megaterium) of 0.15 to 0.31 µM. For the same compound, the “MIC with 565 mM NaCl” value (Bacillus megaterium) was 2.5 to 5 µM, the MIC [17] was 1.25 to 2.5 µM and the MIC (V. diabolicus (HE 800)) was 2.5 to 5 µM. The “MIC with 565 mM NaCl” value (V. diabolicus (HE 800)) was 2.5 to 5 µM and the MIC ([18]; Table IV) was 1.25 to 2.5 µM.
Compound CC(C)C[C@@H]1NC(=O)[C@H](C(C)C)NC(=O)CNC(=O)[C@H](CCCNC(=N)N)NC(=O)[C@H](C(C)C)NC(=O)[C@H](CCCNC(=N)N)NC(=O)[C@H](C(C)C)NC(=O)[C@H](Cc2ccc(O)cc2)NC(=O)[C@H](C)NC(=O)[C@H](Cc2ccc(O)cc2)NC(=O)[C@H](C(C)C)NC(=O)[C@@H](NC(=O)[C@H](Cc2c[nH]c3ccccc23)NC(=O)[C@@H](N)CCCNC(=N)N)CSSC[C@@H](C(=O)N[C@@H](Cc2c[nH]c3ccccc23)C(=O)O)NC(=O)[C@H](CCCNC(=N)N)NC(=O)[C@H](CCCNC(=N)N)NC(=O)[C@H](Cc2ccc(O)cc2)NC(=O)[C@H](CCCNC(=N)N)NC(=O)[C@H](C(C)C)NC1=O [Arenicin] (H-RWCVYAYVRVRGVLVRYRRCW-OH; disulfide 3-20) has an MIC ([1]; DSM 7288) of 25 µM (≈ 69 µg/mL), an MIC ([4]; ATCC 8739) of 2.5 to 5 µM and an MIC ([5]; CIP 110431) of 20 to 40 µM. For the same compound, the MIC ([6]; CIP 103572) was 1.25 to 2.5 µM, the MIC [9] was 7.1 to 12.2 µM and the viability at 48 h, 80 µM ([19]; BEAS human bronchial epithelial cells (ATCC CRL-9609)) was 95%. For the same compound, the viability at 48 h, 80 µM ([19]; HUVEC (human umbilical vein endothelial cells)) was 40%, the “Cytotoxicity towards Jurkat human cells” value (Jurkat human cells) was “cytotoxic” and the MIC (M. smegmatis mc^2155) was 0.7 to 10 µM. It also gave an MIC ([10]; CIP 107398) of 1.25 to 2.5 µM, an MIC ([11]; USA300) of 5 to 10 µM and an MIC (Vibrio alginolyticus) of 0.15 to 0.31 µM. For the same compound, the “MIC with 565 mM NaCl” value (Vibrio alginolyticus) was 0.07 to 0.15 µM, the MIC (Vibrio alginolyticus; 24 h) was 0.15 to 0.31 µM and the “Biofilm OD595 after treatment” value (Pseudomonas sp biofilm) was 0.55. For the same compound, the MIC ([12]; ATCC 43504) was 1.25 to 2.5 µM, the MIC ([13]; DSMZ 13591) was 1.25 to 2.5 µM and the MIC (Serratia marcescens) was >50 µM. The MIC ([14]; DSMZ 22314) was 2.5 to 5 µM, the MIC [15] was 0.15 to 0.31 µM and the “MIC with 565 mM NaCl” value [15] was 2.5 to 5 µM. For the same compound, the MIC (S. aureus (Pasteur); Pasteur) was 1.25 to 2.5 µM, the MIC ([16]; ATCC 6538) was 1.25 to 2.5 µM and the MIC (Bacillus megaterium) was 0.07 to 0.15 µM. The “MIC with 565 mM NaCl” value (Bacillus megaterium) was 20 to 40 µM, the MIC (V. diabolicus (HE 800)) was 1.25 to 2.5 µM and the “MIC with 565 mM NaCl” value (V. diabolicus (HE 800)) was 10 to 20 µM. The MIC ([18]; DSMZ 26371) was 1.25 to 2.5 µM.
